Patent publication US20240166693A1, “METHODS AND COMPOUNDS FOR MODULATING MYOTONIC DYSTROPY 1” (Design Therapeutics, Inc., priority 2020, published 2024)
pEC50: −log10 of the molar value.

test system: Myotonic Dystrophy 1 affected patient fibroblasts (Coriell GM04602; 1600 CTG repeats); assay: DM1 foci reduction assay (CAG10-Cy3 FISH, average foci per nucleus); assay type: cell-based; details: Homo sapiens, Fibroblast, 48 h, read-out: Foci Reduction in Fibroblast EC50, 48 h (nM)
In short: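 Read-out is mean nuclear foci per well from CAG10-Cy3 FISH (5 nM probe, overnight 37 °C) with DAPI nuclei, 4 fields per well at 20×. Compounds ran 48 h in 8-point, 3-fold series topping at 3 μM on 1600-CTG GM04602 fibroblasts, alongside GM07492 wild-type cells.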

Row | SMILES | EC50 [nM]
1 | CCN(CC)CCCCC(NC(=O)[C@H](CC(C)C)NC(=O)C(C)NC(=O)[C@H](Cc1ccccc1)NC(=O)c1ccc(C(C)(C)C)cc1)C(=O)N[C@@H](CO)C(=O)NCCCN(C)CCCNC(=O)CCNC(=O)c1nc(NC(=O)c2cc(NC(=O)CCNC(=O)c3nc(NC(=O)CCCNC(=O)c4cc(NC(=O)c5nc(NC(=O)CCNC(=O)c6cc(NC(=O)c7nccn7C)cn6C)cn5C)cn4C)cn3C)cn2C)cn1C (stereo in doubt) [Compound 71] | > 500
2 | CCN(CC)CCCC[C@H](NC(=O)[C@H](CC(C)C)NC(=O)[C@H](C)NC(=O)[C@H](Cc1ccccc1)NC(=O)c1ccc(C(C)(C)C)cc1)C(=O)N[C@@H](CO)C(=O)NCCOCCOCCOCCOCCOCCNC(=O)c1cc(NC(=O)c2nc(NC(=O)CCNC(=O)c3cc(NC(=O)c4nc(NC(=O)[C@H](CCNC(=O)c5cc(NC(=O)c6nc(NC(=O)CCNC(=O)c7cc(NC(=O)c8nccn8C)cn7C)cn6C)cn5C)NC(C)=O)cn4C)cn3C)cn2C)cn1C [Compound 132] | < 100
3 | CCN(CC)CCCC[C@H](NC(=O)[C@H](CC(C)C)NC(=O)[C@H](C)NC(=O)[C@H](Cc1ccccc1)NC(=O)c1ccc(C(C)(C)C)cc1)C(=O)N[C@@H](CO)C(=O)NCCOCCOCCOCCOCCOCC(=O)N[C@H](CCNC(=O)c1cc(NC(=O)c2nc(NC(=O)CCNC(=O)c3cc(NC(=O)c4nccn4C)cn3C)cn2C)cn1C)C(=O)Nc1cn(C)c(C(=O)Nc2cc(C(=O)NCCC(=O)Nc3cn(C)c(C(=O)Nc4cc(C(=O)NCCO)n(C)c4)n3)n(C)c2)n1 [Compound 134] | > 500
4 | CCN(CC)CCCC[C@H](NC(=O)[C@H](CC(C)C)NC(=O)[C@H](C)NC(=O)[C@H](Cc1ccccc1)NC(=O)c1ccc(C(C)(C)C)cc1)C(=O)N[C@@H](CO)C(=O)Nc1ccc(OCCOCCOCCNC(=O)CCNC(=O)c2nc(NC(=O)c3cc(NC(=O)CCNC(=O)c4nc(NC(=O)CCCNC(=O)c5cc(NC(=O)c6nc(NC(=O)CCNC(=O)c7cc(NC(=O)c8nccn8C)cn7C)cn6C)cn5C)cn4C)cn3C)cn2C)cc1 [Compound 178] | < 100
5 | CCN(CC)CCCC[C@H](NC(=O)[C@H](CC(C)C)NC(=O)[C@H](C)NC(=O)[C@H](Cc1ccccc1)NC(=O)c1ccc(C(C)(C)C)cc1)C(=O)N[C@@H](CO)C(=O)NCCOCCOCCOCCOCCOCCNC(=O)c1nc(NC(=O)CCNC(=O)c2cc(NC(=O)c3nc(NC(=O)CCCNC(=O)c4cc(NC(=O)c5nc(NC(=O)c6cc(NC(=O)c7cc(NC(=O)c8nccn8C)cn7C)cn6C)cn5C)cn4C)cn3C)cn2C)cn1C [Compound 106] | > 500
6 | CC(C)CN(CCCC[C@H](NC(=O)COCCOCCNC(=O)c1ccc(C(C)(C)C)cc1)C(=O)N[C@@H](CO)C(=O)NCCOCCOCCOCCOCCOCCNC(=O)CCNC(=O)c1nc(NC(=O)c2cc(NC(=O)CCNC(=O)c3nc(NC(=O)CCCNC(=O)c4cc(NC(=O)c5nc(NC(=O)CCNC(=O)c6cc(NC(=O)c7nccn7C)cn6C)cn5C)cn4C)cn3C)cn2C)cn1C)C1CC2CCC1C2 (stereo partly shown) [Compound 144] | < 100
7 | CCN(CC)CCCC[C@H](NC(=O)[C@H](CC(C)C)NC(=O)[C@H](C)NC(=O)[C@H](Cc1ccccc1)NC(=O)c1ccc(C(C)(C)C)cc1)C(=O)N[C@@H](CO)C(=O)NCCOCCOCCOCCOCCOCCNC(=O)c1cc(NC(=O)c2nc(NC(=O)[C@@H](CCNC(=O)c3cc(NC(=O)c4nc(NC(=O)CCNC(=O)c5cc(NC(=O)c6nccn6C)cn5C)cn4C)cn3C)NC(C)=O)cn2C)cn1C [Compound 112] | > 500
8 | CCN(CC)CCCC[C@H](NC(=O)OC(C)(C)C)C(=O)N[C@@H](CO)C(=O)NCCOCCOCCOCCOCCOCCNC(=O)CCNC(=O)c1nc(NC(=O)c2cc(NC(=O)CCNC(=O)c3nc(NC(=O)CCCNC(=O)c4cc(NC(=O)c5nc(NC(=O)CCNC(=O)c6cc(NC(=O)c7nccn7C)cn6C)cn5C)cn4C)cn3C)cn2C)cn1C [Compound 157] | 100 to 500
9 | CCN(CC)CCCC[C@H](NC(=O)[C@H](CC(C)C)NC(=O)[C@H](C)NC(=O)[C@H](Cc1ccccc1)NC(=O)c1ccc(C)cc1)C(=O)N[C@@H](CO)C(=O)NCCOCCOCCOCCOCCOCCNC(=O)CCNC(=O)c1nc(NC(=O)c2cc(NC(=O)CCNC(=O)c3nc(NC(=O)CCCNC(=O)c4cc(NC(=O)c5nc(NC(=O)CCNC(=O)c6cc(NC(=O)c7nccn7C)cn6C)cn5C)cn4C)cn3C)cn2C)cn1C [Compound 85] | < 100
10 | CC(C)C[C@H](NC(=O)[C@H](C)NC(=O)[C@H](Cc1ccccc1)NC(=O)c1ccc(C(C)(C)C)cc1)C(=O)N[C@@H](CCCCN(C)C1CC2CCC1C2)C(=O)N[C@@H](CO)C(=O)NCCOCCOCCOCCOCCOCCOCCOCCOCCOCCOCCNC(=O)c1cc(NC(=O)c2cc(NC(=O)c3nc(NC(=O)c4cc(NC(=O)[C@@H](N)CCNC(=O)c5nc(NC(=O)c6cc(NC(=O)c7cc(NC(=O)c8nccn8C)cn7C)cn6C)cn5C)cn4C)cn3C)cn2C)cn1C (stereo partly shown) [Compound 119] | > 500
11 | CCN(CC)CCCC[C@H](NC(=O)[C@H](CC(C)C)NC(=O)[C@H](C)NC(=O)[C@H](Cc1ccccc1)NC(=O)c1ccc(C(C)(C)C)cc1)C(=O)N[C@@H](CO)C(=O)NCCOCCOCCOCCOCCOCCOCCOCCOCCOCCOCCOCCOCCOCCOCCOCCNC(=O)CCNC(=O)c1nc(NC(=O)c2cc(NC(=O)CCNC(=O)c3nc(NC(=O)CCCNC(=O)c4cc(NC(=O)c5nc(NC(=O)CCNC(=O)c6cc(NC(=O)c7nccn7C)cn6C)cn5C)cn4C)cn3C)cn2C)cn1C [Compound 27] | < 100

same assay, conditions: Homo sapiens, Fibroblast; DM1 fibroblasts, 48 h treatment, 8-point dose response, 3 μM top dose; read-out: Foci Reduction in Fibroblast EC50, 48 h

Row | SMILES | pEC50
12 | CC(C)c1cnn2c(NCc3ccc(OCCOCCOCCOCCOCCOCCOCCOCCOCCOCCOCCNC(=O)CCNC(=O)c4nc(NC(=O)c5cc(NC(=O)CCNC(=O)c6nc(NC(=O)CCCNC(=O)c7cc(NC(=O)c8nc(NC(=O)CCNC(=O)c9cc(NC(=O)c%10nccn%10C)cn9C)cn8C)cn7C)cn6C)cn5C)cn4C)cc3-n3cccn3)nc(OC3CCCNC3)nc12 (stereo not shown) [Compound 53] | < 6.30
13 | CCN(c1cc(-c2ccc(CN3CCN(CCOCCOCCOCCOCCOCCOCCOCCOCCOCCOCCNC(=O)CCNC(=O)c4nc(NC(=O)c5cc(NC(=O)CCNC(=O)c6nc(NC(=O)CCCNC(=O)c7cc(NC(=O)c8nc(NC(=O)CCNC(=O)c9cc(NC(=O)c%10nccn%10C)cn9C)cn8C)cn7C)cn6C)cn5C)cn4C)CC3)cc2)cc(C(=O)NCc2c(C)cc(C)[nH]c2=O)c1C)C1CCOCC1 [Compound 167] | < 6.30
14 | CC(C)c1cnn2c(NCc3ccc(OCCOCCOCCOCCOCCOCCOCCOCCOCCOCCOCCOCCOCCOCCOCCOCCNC(=O)CCNC(=O)c4nc(NC(=O)c5cc(NC(=O)CCNC(=O)c6nc(NC(=O)CCCNC(=O)c7cc(NC(=O)c8nc(NC(=O)CCNC(=O)c9cc(NC(=O)c%10nccn%10C)cn9C)cn8C)cn7C)cn6C)cn5C)cn4C)cc3-n3cccn3)nc(OC3CCCNC3)nc12 (stereo not shown) [Compound 54] | < 6.30
15 | CCCCCCNc1nc(NC2CCN(CCOCCOCCOCCOCCOCCNC(=O)CCNC(=O)c3nc(NC(=O)c4cc(NC(=O)CCNC(=O)c5nc(NC(=O)CCCNC(=O)c6cc(NC(=O)c7nc(NC(=O)CCNC(=O)c8cc(NC(=O)c9nccn9C)cn8C)cn7C)cn6C)cn5C)cn4C)cn3C)CC2)c2cc(OC)c(OC)cc2n1 [Compound 190] | < 6.30
16 | CC(C)c1cnn2c(NCc3ccc(OCCOCCOCCOCCOCCOCCNC(=O)c4cc(NC(=O)c5cc(NC(=O)c6nc(NC(=O)c7cc(NC(=O)[C@@H](N)CCNC(=O)c8nc(NC(=O)CCNC(=O)c9cc(NC(=O)c%10nccn%10C)cn9C)cn8C)cn7C)cn6C)cn5C)cn4C)cc3-n3cccn3)nc(OC3CCCNC3)nc12 (stereo partly shown) [Compound 122] | < 6.30
